Results: ChEMBL document CHEMBL3585283, “Synthesis and evaluation of a series of quinolinyl trans-cyanostilbene analogs as anticancer agents” (2014)
The source made the active and inactive calls. No cut-off for these calls is given here.

Columns and labels:
[1] = system: SNB-19; experiment: Antitumor activity against human SNB19 cells after 48 hrs; type: functional; settings: SNB-19, 48 h
[2] = Antitumor activity against human LOXIMVI cells after 48 hrs; type: functional; settings: LOX IMVI
[3] = system: HT-29; experiment: Antitumor activity against human HT-29 cells after 48 hrs; type: functional; settings: HT-29, 48 h
[4] = system: HOP-62; experiment: Antitumor activity against human HOP62 cells after 48 hrs; type: functional; settings: HOP-62, 48 h
[5] = Antitumor activity against human MOLT4 cells after 48 hrs; type: functional; settings: MOLT-4, 48 h
[6] = system: IGROV-1; experiment: Antitumor activity against human IGROV1 cells after 48 hrs; type: functional; settings: IGROV-1, 48 h
[7] = system: SW-620; experiment: Antitumor activity against human SW620 cells after 48 hrs; type: functional; settings: SW-620, 48 h
[8] = system: PC-3; experiment: Antitumor activity against human PC3 cells after 48 hrs; type: functional; settings: PC-3, 48 h
[9] = system: SN12C; experiment: Antitumor activity against human SN12C cells after 48 hrs; type: functional
[10] = system: NCI-H322M; experiment: Antitumor activity against human NCI-H322M cells after 48 hrs; type: functional
[11] = system: OVCAR-8; experiment: Antitumor activity against human OVCAR8 cells after 48 hrs; type: functional; settings: OVCAR-8, 48 h
[12] = system: TK-10; experiment: Antitumor activity against human TK10 cells after 48 hrs; type: functional; settings: TK-10, 48 h
[13] = system: SF-268; experiment: Antitumor activity against human SF268 cells after 48 hrs; type: functional; settings: SF-268, 48 h
[14] = system: SNB-75; experiment: Antitumor activity against human SNB75 cells after 48 hrs; type: functional; settings: SNB-75, 48 h
[15] = Antitumor activity against human BT549 cells after 48 hrs; type: functional; settings: BT-549, 48 h
[16] = system: NCI-H522; experiment: Antitumor activity against human NCI-H522 cells after 48 hrs; type: functional; settings: NCI-H522, 48 h
[17] = system: CCRF-CEM; experiment: Antitumor activity against human CCRF-CEM cells after 48 hrs; type: functional
[18] = Antitumor activity against human Hs578T cells after 48 hrs; type: functional; settings: Hs-578T
[19] = system: MDA-MB-231; experiment: Antitumor activity against human MDA-MB-231 cells after 48 hrs; type: functional; settings: MDA-MB-231, 48 h
[20] = Antitumor activity against human SF295 cells after 48 hrs; type: functional; settings: SF-295, 48 h
[21] = Antitumor activity against human HOP92 cells after 48 hrs; type: functional; settings: HOP-92, 48 h
[22] = system: OVCAR-4; experiment: Antitumor activity against human OVCAR4 cells after 48 hrs; type: functional; settings: OVCAR-4, 48 h
[23] = system: NCI-H226; experiment: Antitumor activity against human NCI-H226 cells after 48 hrs; type: functional; settings: NCI-H226, 48 h
[24] = system: NCI-H460; experiment: Antitumor activity against human NCI-H460 cells after 48 hrs; type: functional; settings: NCI-H460, 48 h
[25] = Antitumor activity against human COLO205 cells after 48 hrs; type: functional; settings: COLO 205, 48 h
[26] = system: HL-60(TB); experiment: Antitumor activity against human HL-60(TB) cells after 48 hrs; type: functional; settings: HL-60, 48 h
[27] = system: A549; experiment: Antitumor activity against human A549 cells after 48 hrs; type: functional; settings: A549, 48 h
[28] = system: EKVX; experiment: Antitumor activity against human EKVX cells after 48 hrs; type: functional, cell-based
[29] = system: SK-MEL-5; experiment: Antitumor activity against human SK-MEL-5 cells after 48 hrs; type: functional; settings: SK-MEL-5, 48 h
[30] = system: DU-145; experiment: Antitumor activity against human DU145 cells after 48 hrs; type: functional; settings: DU-145, 48 h
[31] = system: HCT-116; experiment: Antitumor activity against human HCT116 cells after 48 hrs; type: functional; settings: HCT-116, 48 h
[32] = system: SR; experiment: Antitumor activity against human SR cells after 48 hrs; type: functional
[33] = system: UACC-62; experiment: Antitumor activity against human UACC62 cells after 48 hrs; type: functional; settings: UACC-62, 48 h
[34] = system: MCF7; experiment: Antitumor activity against human MCF7 cells after 48 hrs; type: functional; settings: MCF7, 48 h
[35] = system: K562; experiment: Antitumor activity against human K562 cells after 48 hrs; type: functional; settings: K562, 48 h
[36] = Antitumor activity against human NCI-ADR-RES cells after 48 hrs; type: functional
[37] = Antitumor activity against human RPMI8226 cells after 48 hrs; type: functional; settings: RPMI-8226, 48 h
[38] = system: U-251; experiment: Antitumor activity against human U251 cells after 48 hrs; type: functional; settings: U-251, 48 h
[39] = system: M14; experiment: Antitumor activity against human M14 cells after 48 hrs; type: functional; settings: M14, 48 h
[40] = system: Malme-3M; experiment: Antitumor activity against human MALME-3M cells after 48 hrs; type: functional
[41] = system: UACC-257; experiment: Antitumor activity against human UACC257 cells after 48 hrs; type: functional; settings: UACC-257, 48 h
[42] = Antitumor activity against human RXF393 cells after 48 hrs; type: functional; settings: RXF 393, 48 h
[43] = system: CAKI-1; experiment: Antitumor activity against human Caki1 cells after 48 hrs; type: functional; settings: CAKI-1, 48 h
[44] = system: OVCAR-3; experiment: Antitumor activity against human OVCAR3 cells after 48 hrs; type: functional; settings: OVCAR-3, 48 h
[45] = system: HCT-15; experiment: Antitumor activity against human HCT15 cells after 48 hrs; type: functional; settings: HCT-15, 48 h
[46] = system: SK-OV-3; experiment: Antitumor activity against human SKOV3 cells after 48 hrs; type: functional; settings: SK-OV-3, 48 h
[47] = system: SK-MEL-2; experiment: Antitumor activity against human SK-MEL-2 cells after 48 hrs; type: functional; settings: SK-MEL-2, 48 h
[48] = system: NCI-H23; experiment: Antitumor activity against human NCI-H23 cells after 48 hrs; type: functional; settings: NCI-H23, 48 h
[49] = Antitumor activity against human SF539 cells after 48 hrs; type: functional; settings: SF-539, 48 h
[50] = system: T47D; experiment: Antitumor activity against human T47D cells after 48 hrs; type: functional
[51] = system: MDA-MB-468; experiment: Antitumor activity against human MDA-MB-468 cells after 48 hrs; type: functional; settings: MDA-MB-468, 48 h
[52] = system: ACHN; experiment: Antitumor activity against human ACHN cells after 48 hrs; type: functional
[53] = system: UO-31; experiment: Antitumor activity against human UO31 cells after 48 hrs; type: functional; settings: UO-31, 48 h
[54] = system: SK-MEL-28; experiment: Antitumor activity against human SK-MEL-28 cells after 48 hrs; type: functional; settings: SK-MEL-28, 48 h
[55] = system: A498; experiment: Antitumor activity against human A498 cells after 48 hrs; type: functional; settings: A498, 48 h
[56] = system: MDA-MB-435; experiment: Antitumor activity against human MDA-MB-435 cells after 48 hrs; type: functional; settings: MDA-MB-435, 48 h
[57] = Antitumor activity against human HCC2998 cells after 48 hrs; type: functional; settings: HCC 2998, 48 h
[58] = system: KM12; experiment: Antitumor activity against human KM12 cells after 48 hrs; type: functional; settings: KM12, 48 h
[59] = system: OVCAR-5; experiment: Antitumor activity against human OVCAR5 cells after 48 hrs; type: functional; settings: OVCAR-5, 48 h
[60] = system: 786-0; experiment: Antitumor activity against human 786-0 cells after 48 hrs; type: functional; settings: 786-0, 48 h

COc1cc(/C(C#N)=C/c2ccc3ccccc3n2)cc(OC)c1OC
GI50 [1]: 578 nM | GI50 [2]: 766 nM | GI50 [3]: 240 nM | GI50 [4]: 567 nM | GI50 [5]: 488 nM | GI50 [6]: 846 nM | GI50 [7]: 164 nM | GI50 [8]: 348 nM | GI50 [9]: 627 nM | GI50 [10]: 718 nM | GI50 [11]: 446 nM | GI50 [12]: 4690 nM | GI50 [13]: 835 nM | GI50 [14]: 182 nM | GI50 [15]: 315 nM | GI50 [16]: 37.2 nM | GI50 [17]: 248 nM | GI50 [18]: 689 nM | GI50 [19]: 943 nM | GI50 [20]: 277 nM | GI50 [21]: 736 nM | GI50 [22]: 1430 nM | GI50 [23]: 4780 nM | GI50 [24]: 361 nM | GI50 [25]: 198 nM | GI50 [26]: 223 nM | GI50 [27]: 375 nM | GI50 [28]: inactive | GI50 [29]: 243 nM | GI50 [30]: 446 nM | GI50 [31]: 234 nM | GI50 [32]: inactive | GI50 [33]: 92 nM | GI50 [34]: 275 nM | GI50 [35]: 80 nM | GI50 [36]: 112 nM | GI50 [37]: 297 nM | GI50 [38]: 355 nM | GI50 [39]: 173 nM | GI50 [40]: inactive | GI50 [41]: 761 nM | GI50 [42]: 271 nM | GI50 [43]: 68 nM | GI50 [44]: 163 nM | GI50 [45]: 319 nM | GI50 [46]: 524 nM | GI50 [47]: 483 nM | GI50 [48]: 751 nM | GI50 [49]: 197 nM | GI50 [50]: 4760 nM | GI50 [51]: 243 nM | GI50 [52]: 1040 nM | GI50 [53]: 762 nM | GI50 [54]: 518 nM | GI50 [55]: 295 nM | GI50 [56]: 33 nM | GI50 [57]: 610 nM | GI50 [58]: 350 nM | GI50 [59]: 580 nM | GI50 [60]: 445 nM

COc1cc(OC)cc(/C(C#N)=C/c2ccc3ccccc3n2)c1
GI50 [1]: 728 nM | GI50 [2]: 610 nM | GI50 [3]: 367 nM | GI50 [4]: 959 nM | GI50 [5]: 419 nM | GI50 [6]: 958 nM | GI50 [7]: 357 nM | GI50 [8]: 584 nM | GI50 [9]: 661 nM | GI50 [10]: 3020 nM | GI50 [11]: 659 nM | GI50 [12]: 3280 nM | GI50 [13]: 476 nM | GI50 [14]: 311 nM | GI50 [15]: 342 nM | GI50 [16]: 94 nM | GI50 [17]: 332 nM | GI50 [18]: 700 nM | GI50 [19]: 1020 nM | GI50 [20]: 341 nM | GI50 [21]: 542 nM | GI50 [22]: 788 nM | GI50 [23]: 10800 nM | GI50 [24]: 339 nM | GI50 [25]: 374 nM | GI50 [26]: 270 nM | GI50 [27]: 649 nM | GI50 [28]: inactive | GI50 [29]: 406 nM | GI50 [30]: 801 nM | GI50 [31]: 416 nM | GI50 [32]: inactive | GI50 [33]: 449 nM | GI50 [34]: 537 nM | GI50 [35]: 353 nM | GI50 [36]: 283 nM | GI50 [37]: 433 nM | GI50 [38]: 425 nM | GI50 [39]: 360 nM | GI50 [40]: 348 nM | GI50 [42]: 334 nM | GI50 [43]: 318 nM | GI50 [44]: 309 nM | GI50 [45]: 409 nM | GI50 [46]: 804 nM | GI50 [47]: 522 nM | GI50 [48]: 983 nM | GI50 [49]: 286 nM | GI50 [50]: 1230 nM | GI50 [51]: 1500 nM | GI50 [52]: 773 nM | GI50 [53]: 573 nM | GI50 [54]: 896 nM | GI50 [55]: 275 nM | GI50 [56]: 147 nM | GI50 [57]: 1420 nM | GI50 [58]: 425 nM | GI50 [59]: 716 nM | GI50 [60]: 501 nM
